Experiment [1] deals with T1, Alpha-1B adrenergic receptor (Homo sapiens, UniProt P35368).
T1 sequence (P35368 whole entry): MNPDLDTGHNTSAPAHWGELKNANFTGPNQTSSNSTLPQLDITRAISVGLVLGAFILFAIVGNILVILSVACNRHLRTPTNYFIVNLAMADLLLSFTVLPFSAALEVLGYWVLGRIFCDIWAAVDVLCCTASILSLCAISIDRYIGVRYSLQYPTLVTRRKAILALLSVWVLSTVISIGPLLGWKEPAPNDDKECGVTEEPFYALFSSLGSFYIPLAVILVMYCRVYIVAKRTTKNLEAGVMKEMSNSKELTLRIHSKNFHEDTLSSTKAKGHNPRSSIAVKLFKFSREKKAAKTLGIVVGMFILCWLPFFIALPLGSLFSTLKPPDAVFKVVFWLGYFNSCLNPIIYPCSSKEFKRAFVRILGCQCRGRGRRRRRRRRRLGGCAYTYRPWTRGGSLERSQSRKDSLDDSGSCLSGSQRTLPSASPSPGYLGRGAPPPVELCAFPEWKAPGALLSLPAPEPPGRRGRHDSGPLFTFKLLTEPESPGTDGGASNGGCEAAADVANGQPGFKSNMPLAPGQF
Briefly: Agonism of human alpha-1B adrenergic receptor, expressed in rat 1 fibroblast cells. The class given is functional, cell-based.

Experiment [2] concerns the target T2, Alpha-1D adrenergic receptor (Homo sapiens, UniProt P25100).
T2 sequence (P25100 whole entry): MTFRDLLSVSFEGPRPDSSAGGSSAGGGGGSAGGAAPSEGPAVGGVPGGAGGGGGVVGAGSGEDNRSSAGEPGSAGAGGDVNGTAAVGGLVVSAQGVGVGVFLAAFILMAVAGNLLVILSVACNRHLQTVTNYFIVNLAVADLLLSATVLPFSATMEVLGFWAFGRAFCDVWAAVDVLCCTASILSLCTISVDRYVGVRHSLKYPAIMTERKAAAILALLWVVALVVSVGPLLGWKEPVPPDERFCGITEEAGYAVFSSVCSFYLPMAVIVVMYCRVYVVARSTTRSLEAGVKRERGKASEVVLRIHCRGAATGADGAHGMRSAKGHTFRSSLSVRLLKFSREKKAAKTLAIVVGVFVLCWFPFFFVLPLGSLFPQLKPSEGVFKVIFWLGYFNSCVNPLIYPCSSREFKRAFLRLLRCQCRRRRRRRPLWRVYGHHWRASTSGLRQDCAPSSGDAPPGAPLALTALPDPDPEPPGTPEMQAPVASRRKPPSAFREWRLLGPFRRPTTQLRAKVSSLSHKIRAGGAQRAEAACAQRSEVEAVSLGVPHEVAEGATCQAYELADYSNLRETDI
Briefly: Agonism of recombinant human alpha-1D adrenergic receptor, expressed in rat 1 fibroblast cells. The class given is functional, cell-based.

Experiment [3] addresses T3, Alpha-1D adrenergic receptor (Homo sapiens) (UniProt P25100).
T3 sequence (whole entry): T2 sequence (P25100 whole entry)
Nature of the experiment: Maximal response via calcium mobilization towards Human Alpha-1D adrenergic receptor as percent relative to […] phenylephrine. The class given is functional. In general terms: A change in cytosolic calcium serves as a functional read-out for many receptors and channels.

For experiment [4], the target named is T4, Alpha-1A adrenergic receptor (Homo sapiens, UniProt P35348).
T4 sequence (P35348 whole entry): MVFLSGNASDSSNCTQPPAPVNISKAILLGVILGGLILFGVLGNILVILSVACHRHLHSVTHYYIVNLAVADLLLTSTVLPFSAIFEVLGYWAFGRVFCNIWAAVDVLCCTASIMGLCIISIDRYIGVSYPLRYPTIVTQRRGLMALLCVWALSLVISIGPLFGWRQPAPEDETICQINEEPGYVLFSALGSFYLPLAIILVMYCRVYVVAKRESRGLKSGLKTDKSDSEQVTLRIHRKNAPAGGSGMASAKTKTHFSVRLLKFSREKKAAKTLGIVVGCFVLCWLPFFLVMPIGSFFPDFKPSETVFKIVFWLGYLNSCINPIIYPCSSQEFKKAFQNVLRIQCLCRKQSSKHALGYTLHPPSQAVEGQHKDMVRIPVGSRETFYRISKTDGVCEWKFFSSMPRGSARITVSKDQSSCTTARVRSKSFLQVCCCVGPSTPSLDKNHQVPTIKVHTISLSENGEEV
Nature of the experiment: Agonism of human alpha-1A adrenergic receptor expressed in rat 1 fibroblast cells. Format: functional, cell-based.

Experiment [5] addresses T5, Alpha-1A adrenergic receptor (Homo sapiens) (UniProt P35348).
T5 sequence (whole entry): T4 sequence (P35348 whole entry)
Briefly: Maximal response assayed via calcium mobilization to the human alpha-1A adrenergic receptor compared the percent of the […] phenylephrine response. Format: functional.

For experiment [6], the target named is T6, Alpha-1B adrenergic receptor (Homo sapiens) (UniProt P35368).
T6 sequence (whole entry): T1 sequence (P35368 whole entry)
Nature of the experiment: Maximal response assayed via calcium mobilization to human alpha-1B adrenergic receptor compared to percent of the […] phenylephrine response. The class given is functional.

The target of experiment [7] is T3, Alpha-1D adrenergic receptor (Homo sapiens). Briefly: Maximal response via calcium mobilization towards Human Alpha-1D adrenergic receptor as percent rtelative to […] phenylephrine. Format: functional.
The target of experiment [8] is T1, Alpha-1B adrenergic receptor. Nature of the experiment: Inhibitory concentration against radioligand binding to human Alpha-1B adrenergic receptor, expressed in rat 1 fibroblast cells. Format: cell-based.
Experiment [9] has as its target T4, Alpha-1A adrenergic receptor. Briefly: Inhibitory concentration against radioligand binding to human Alpha-1A adrenergic receptor, expressed in rat 1 fibroblast cells. Format: cell-based.
The target in experiment [10] is T2, Alpha-1D adrenergic receptor. Briefly: Inhibitory concentration against radioligand binding to human Alpha-1D adrenergic receptor, expressed in rat 1 fibroblast cells. Format: cell-based.
Experiment [11] has the same target. Nature of the experiment: Inhibitory concentration against radioligand binding to human aAlpha-1D adrenergic receptor, expressed in rat 1 fibroblast cells. Format: cell-based.

Data on 24 compounds can be found in ChEMBL document CHEMBL1145766, “2-(Anilinomethyl)imidazolines as alpha1 adrenergic receptor agonists: alpha1a subtype selective 2'-heteroaryl compounds” (Bioorg Med Chem Lett, 2003).

The EC50 is the concentration at which the effect is half-maximal. By IC50 is commonly meant the point on the concentration scale where inhibition reaches its midpoint.

Consider `CCn1ccc(-c2ccccc2NCC2=NCCN2)n1`, for which the concentration giving a half-maximal response (EC50) in experiment [1] is > 100000 nM; in [2] it was > 100000 nM; in experiment [4] it was 25.1 nM. Besides, the Max response in experiment [3] was 0%; in [5], 78%; in experiment [6], 0%.

For `Cc1nc(-c2ccccc2NCC2=NCCN2)n(C)n1`, the concentration giving a half-maximal response (EC50) in experiment [1] was > 5010 nM; in experiment [2], > 5010 nM; in experiment [4], 1000 nM. In addition, the Max response was determined as 98% in experiment [5], 0% in experiment [7] and 0% in [6].

On to `CCn1cccc1-c1ccccc1NCC1=NCCN1`, for which the half-maximal effective concentration (EC50) in [1] was > 100000 nM; in experiment [2], > 100000 nM; in experiment [4] it was 2.51 nM. The Max response was 0% in experiment [3], 93% in experiment [5] and 0% in experiment [6].

As to `Cn1nccc1-c1ccccc1NCC1=NCCN1`, the half-maximal effective concentration (EC50) was > 100000 nM in experiment [1], > 100000 nM in experiment [2] and 10 nM in [4]. The Max response in [3] was 0%; in [5], 108%; in experiment [6] it was 0%. In addition, the values for the IC50 in experiment [8], in experiment [9] and in [10] were 398 nM, 200 nM and 501 nM, respectively.

Turning to `c1ccc(-c2nc[nH]n2)c(NCC2=NCCN2)c1`, the EC50 is 5.01 nM in [1], 3.98 nM in experiment [2] and 0.794 nM in [4]. In addition, the Max response in experiment [5] came out at 135%; in experiment [7], 123%; in [6] it was 100%.

As to `c1ccc(-c2cn[nH]c2)c(NCC2=NCCN2)c1`, the half-maximal effective concentration (EC50) was 79.4 nM in experiment [1], 20 nM in [2] and 1.26 nM in experiment [4]. The figures for the Max response in experiment [3], in experiment [5] and in experiment [6] were 62%, 112% and 72%, respectively.

For `Cn1cccc1-c1ccccc1NCC1=NCCN1`, the EC50 in experiment [1] was > 100000 nM; in [2], 251 nM; in experiment [4], 20 nM. Further, the Max response turned out to be 32% in [3], 103% in experiment [5] and 0% in experiment [6].

For `CCCn1nccc1-c1ccccc1NCC1=NCCN1`, the EC50 is > 100000 nM in [1], > 100000 nM in [2] and 251 nM in experiment [4]. The Max response in [3] was 0%; in experiment [5] it was 59%; in experiment [6], 0%.

In the case of `CCn1cc(-c2ccccc2NCC2=NCCN2)cn1`, the EC50 in experiment [1], in experiment [2] and in experiment [4] was > 100000 nM in each case. For the same compound, the Max response in experiment [3], in [5] and in experiment [6] was 0% throughout.

Regarding `Cn1ccnc1-c1ccccc1NCC1=NCCN1`, the half-maximal effective concentration (EC50) was 39.8 nM in experiment [1], 200 nM in [2] and 6.31 nM in [4]. Also, the Max response in [3] was 92%; in [5], 88%; in experiment [6] it was 104%.

With `Cn1cc(-c2ccccc2NCC2=NCCN2)cn1`, the figures for the concentration for a half-maximal effect (EC50) in [1], in [2] and in [4] were > 100000 nM, > 100000 nM and 398 nM, respectively. For the same compound, the Max response in experiment [3] amounted to 0%; in [5] it was 39%; in [6], 0%.

In the case of `CCn1ncnc1-c1ccccc1NCC1=NCCN1`, the values for the EC50 in experiment [1], in experiment [2] and in [4] were 63.1 nM, 126 nM and 1.26 nM, respectively. Also, the Max response in experiment [5] came out at 107%; in experiment [7], 55%; in experiment [6], 94%.

In the case of `Cn1ccc(-c2ccccc2NCC2=NCCN2)n1`, the EC50 in experiment [1] was 50.1 nM; in experiment [2] it was 15.8 nM; in experiment [4] it was 3.16 nM. Besides, the Max response came to 29% in experiment [3], 116% in [5] and 33% in experiment [6].

On to `CCCn1ncnc1-c1ccccc1NCC1=NCCN1`, for which the EC50 is 316 nM in [1], 251 nM in [2] and 12.6 nM in experiment [4]. Also, the Max response came out at 96% in experiment [5], 57% in experiment [7] and 74% in experiment [6].

In the case of `CC(C)n1nccc1-c1ccccc1NCC1=NCCN1`, the half-maximal effective concentration (EC50) in experiment [1], in [2] and in experiment [4] was > 100000 nM each time. Further, the Max response in experiment [3], in experiment [5] and in experiment [6] was 0% each time.

Consider `CCCCn1ncnc1-c1ccccc1NCC1=NCCN1`, for which the 50% effective concentration (EC50) was 200 nM in [1], 398 nM in experiment [2] and 200 nM in experiment [4]. Further, the Max response came out at 86% in [5], 66% in experiment [7] and 83% in experiment [6].

For `c1ccc(-c2cc[nH]n2)c(NCC2=NCCN2)c1`, the concentration giving a half-maximal response (EC50) in experiment [1] is 5.01 nM; in experiment [2], 20 nM; in experiment [4] it was 1 nM. Also, the IC50 in [11] was 39.8 nM; in experiment [8], 158 nM; in experiment [9] it was 25.1 nM. Also, the Max response in experiment [5] is 104%; in experiment [7] it was 54%; in experiment [6], 95%.

On to `FC(F)(F)Cn1nccc1-c1ccccc1NCC1=NCCN1`, for which the EC50 in [1] is > 100000 nM; in experiment [2] it was > 100000 nM; in [4] it was 316 nM. Moreover, the Max response in [3] amounted to 0%; in experiment [5] it was 76%; in experiment [6], 0%.

`Cc1ccc(-c2ccccc2NCC2=NCCN2)n1C`: the concentration for a half-maximal effect (EC50) in experiment [1] is > 100000 nM; in [2], > 100000 nM; in experiment [4], 50.1 nM. The Max response was found to be 0% in [3], 78% in [5] and 0% in experiment [6].

As for `CCn1nccc1-c1ccccc1NCC1=NCCN1`, the EC50 was > 100000 nM in [1], > 100000 nM in [2] and 63.1 nM in experiment [4]. Besides, the Max response in experiment [3] was determined as 0%; in experiment [5], 81%; in experiment [6], 0%.

As to `Cc1n[nH]c(-c2ccccc2NCC2=NCCN2)n1`, the EC50 in experiment [1] is > 5010 nM; in experiment [2] it was > 5010 nM; in experiment [4], 794 nM. Also, the values for the Max response in [5], in experiment [7] and in experiment [6] were 87%, 0% and 0%, respectively.

For `FC(F)(F)Cn1ncnc1-c1ccccc1NCC1=NCCN1`, the EC50 was > 100000 nM in experiment [1], > 100000 nM in [2] and 79.4 nM in experiment [4]. The Max response was 91% in experiment [5], 0% in experiment [7] and 0% in [6].

In the case of `Cn1ncnc1-c1ccccc1NCC1=NCCN1`, the concentration for a half-maximal effect (EC50) is 39.8 nM in experiment [1], 63.1 nM in experiment [2] and 2 nM in [4]. Besides, the Max response in [5] came to 91%; in experiment [7] it was 116%; in experiment [6], 93%.

Turning to `CC(C)n1ncnc1-c1ccccc1NCC1=NCCN1`, the EC50 in [1] was > 100000 nM; in experiment [2] it was 3160 nM; in experiment [4], 6.31 nM. Besides, the values for the Max response in experiment [5], in experiment [7] and in experiment [6] were 104%, 37% and 0%, respectively.
